Test results as given in patent US12325706B2, “Polymorphic form of sepiapterin” (PTC Therapeutics MP, Inc., priority 2016, dated 2025).
≈ marks a conversion by molar mass, not a printed value. Entries after “also recorded” stand apart in the source; their conditions may differ.

Legend:
Format in all cases: physicochemical
[1] = Stability of crystalline Form A to grinding and sieving (XRPD); conditions: mortar and pestle, 140 mesh sieve
Method: A weight loss of 5.3% was observed up to 150° C. on TGA. […] (peak temperature). The starting material contained large particles with size over 100 μm. It was ground and characterized by XRPD, TGA and DSC. […] A weight loss of 1.9% was observed after N2 purging for 30 min to remove the absorbed water, followed by a second-step weight loss of 13.7% from 30° C. to 150° C. on TGA. […] (peak temperature).
Crystalline form A of sepiapterin of the invention was subjected to grinding and sieving process comprising grinding with a mortar and pestle and passing the material through a 140 mesh sieve. […] This process was repeated until all material was passed through the sieve.

[2] = Storage stability of sepiapterin polymorph forms, form change by XRD; conditions: 10% RH
Method: (§1) Form A and F samples were placed in chambers with silica gel to remove water (the relative humidity was measured to be ˜10% RH) at different temperatures. Form D samples were placed in chambers with water (relative humidity was estimated to be ˜100% RH) at different temperatures.
(§2) The HPLC purities and XRD patterns were obtained for each of Form A/F/D samples stored at various temperatures.

[3] = Approximate solubility of starting material at RT
[4] = Storage stability of sepiapterin polymorph forms, HPLC purity; parameters: Impurity RRT 1.06 (HPLC) / Impurity RRT 1.08 (HPLC) / Impurity RRT 1.17 (HPLC) / Impurity RRT 1.21 (HPLC) / Impurity RRT 1.25 (HPLC) / Impurity RRT 0.62 (HPLC) / Impurity RRT 0.89 (HPLC) / Impurity RRT 0.95 (HPLC) / Impurity RRT 0.60 (HPLC): unit not given here; conditions: for % of Initial / Purity (area %): 10% RH
Method: as §1, §2
Samples of sepiapterin free base polymorph Forms D, F, and A were stored at room temperature (RT), 35° C., and 50° C. The samples were analyzed by HPLC at 1 week and 4 week intervals.

[5] = 35° C./10% RH, 1 w, listed as Polymorph A
[6] = 35° C./10% RH, 4 w, listed as Polymorph A
[7] = 50° C./10% RH, 1 w, listed as Polymorph A
[8] = 50° C./10% RH, 4 w, listed as Polymorph A
[9] = RT/10% RH, 1 w, listed as Polymorph A
[10] = RT/10% RH, 4 w, listed as Polymorph A

**Q.** Which results are given for `C[C@H](O)C(=O)C1=Nc2c(nc(N)[nH]c2=O)NC1` [Form A, sepiapterin]?
**A.** Physical form stability to grinding and sieving (XRPD) [1]: no form change was observed after grinding; also recorded: stable to the grinding and sieving process; also recorded: confirms the physical form stability; Form change ([2]; storage 1 week, 35° C.): No; Form change ([2]; storage 1 week, 50° C.): No; Form change ([2]; storage 1 week, RT): No; Form change ([2]; storage 4 weeks, 35° C.): No; Form change ([2]; storage 4 weeks, 50° C.): No; Form change ([2]; storage 4 weeks, RT): No; solubility ([3]; organic solvent or mixture, 1,4-Dioxane, RT): < 1700 µg/mL; solubility ([3]; organic solvent or mixture, 2-MeTHF, RT): < 2000 µg/mL; solubility ([3]; organic solvent or mixture, ACN, RT): < 1700 µg/mL; solubility ([3]; organic solvent or mixture, Acetone, RT): < 1800 µg/mL; solubility ([3]; organic solvent or mixture, CHCl3, RT): < 1600 µg/mL; solubility ([3]; organic solvent or mixture, DCM, RT): < 1500 µg/mL; solubility ([3]; organic solvent or mixture, DMAc, RT): > 28000 µg/mL; solubility ([3]; organic solvent or mixture, DMSO, RT): > 34000 µg/mL; solubility ([3]; organic solvent or mixture, EtOAc, RT): < 2500 µg/mL; solubility ([3]; organic solvent or mixture, EtOH, RT): < 1500 µg/mL; solubility ([3]; organic solvent or mixture, IPA, RT): < 1300 µg/mL; solubility ([3]; organic solvent or mixture, IPAc, RT): < 2700 µg/mL; solubility ([3]; organic solvent or mixture, MIBK, RT): < 2000 µg/mL; solubility ([3]; organic solvent or mixture, MTBE, RT): < 2000 µg/mL; solubility ([3]; organic solvent or mixture, MeOH, RT): 1700 to 3400 µg/mL (≈ 7.17 to 14.3 mM); solubility ([3]; organic solvent or mixture, NMP, RT): > 48000 µg/mL; solubility ([3]; organic solvent or mixture, THF, RT): < 1900 µg/mL; solubility ([3]; organic solvent or mixture, Toluene, RT): < 2400 µg/mL; solubility ([3]; organic solvent or mixture, n-Heptane, RT): < 2100 µg/mL; solubility ([3]; water, H2O, RT): 1600 to 3200 µg/mL (≈ 6.74 to 13.5 mM); Impurity RRT 0.62 (HPLC) ([4]; 35° C./10% RH, 1 w): 0.24; Impurity RRT 0.89 (HPLC) ([4]; 35° C./10% RH, 1 w): <0.05; Impurity RRT 1.06 (HPLC) ([4]; 35° C./10% RH, 1 w): <0.05; Impurity RRT 1.21 (HPLC) ([4]; 35° C./10% RH, 1 w): <0.05; Impurity RRT 1.25 (HPLC) ([4]; 35° C./10% RH, 1 w): <0.05; Impurity RRT 0.95 (HPLC) [4, 5]: 1.36; Impurity RRT 1.08 (HPLC) [4, 5]: 0.28; Impurity RRT 1.17 (HPLC) [4, 5]: 0.16; Sepiapterin RRT 1.00 (HPLC), amount of sepiapterin [4, 5]: 97.97%; Impurity RRT 0.62 (HPLC) ([4]; 35° C./10% RH, 4 w): 1.03; Impurity RRT 0.89 (HPLC) ([4]; 35° C./10% RH, 4 w): <0.05; Impurity RRT 1.06 (HPLC) ([4]; 35° C./10% RH, 4 w): <0.05; Impurity RRT 1.08 (HPLC) ([4]; 35° C./10% RH, 4 w): <0.05; Impurity RRT 1.21 (HPLC) ([4]; 35° C./10% RH, 4 w): <0.05; Impurity RRT 1.25 (HPLC) ([4]; 35° C./10% RH, 4 w): <0.05; Impurity RRT 0.95 (HPLC) [4, 6]: 2.70; Impurity RRT 1.17 (HPLC) [4, 6]: 0.16; Sepiapterin RRT 1.00 (HPLC), amount of sepiapterin [4, 6]: 96.06%; Impurity RRT 0.62 (HPLC) ([4]; 50° C./10% RH, 1 w): 0.68; Impurity RRT 0.89 (HPLC) ([4]; 50° C./10% RH, 1 w): <0.05; Impurity RRT 1.06 (HPLC) ([4]; 50° C./10% RH, 1 w): 0.45; Impurity RRT 1.21 (HPLC) ([4]; 50° C./10% RH, 1 w): <0.05; Impurity RRT 1.25 (HPLC) ([4]; 50° C./10% RH, 1 w): <0.05; Impurity RRT 0.95 (HPLC) [4, 7]: 3.48; Impurity RRT 1.08 (HPLC) [4, 7]: 0.08; Impurity RRT 1.17 (HPLC) [4, 7]: 0.16; Sepiapterin RRT 1.00 (HPLC), amount of sepiapterin [4, 7]: 95.15%; Impurity RRT 0.62 (HPLC) ([4]; 50° C./10% RH, 4 w): 2.59; Impurity RRT 0.89 (HPLC) ([4]; 50° C./10% RH, 4 w): 0.06; Impurity RRT 1.06 (HPLC) ([4]; 50° C./10% RH, 4 w): <0.05; Impurity RRT 1.17 (HPLC) ([4]; 50° C./10% RH, 4 w): 0.17; Impurity RRT 1.21 (HPLC) ([4]; 50° C./10% RH, 4 w): 0.06; Impurity RRT 1.25 (HPLC) ([4]; 50° C./10% RH, 4 w): 0.11; Impurity RRT 0.95 (HPLC) [4, 8]: 7.67; Impurity RRT 1.08 (HPLC) [4, 8]: 0.85; Sepiapterin RRT 1.00 (HPLC), amount of sepiapterin [4, 8]: 88.49%; Sepiapterin RRT 1.00 (HPLC), amount of sepiapterin ([4]; 50° C./10% RH, 4 w, listed as polymorph A): 88.49%; Impurity RRT 0.89 (HPLC) ([4]; Initial): <0.05; Impurity RRT 1.06 (HPLC) ([4]; Initial): <0.05; Impurity RRT 1.08 (HPLC) ([4]; Initial): <0.05; Impurity RRT 1.17 (HPLC) ([4]; Initial): 0.17; Impurity RRT 1.21 (HPLC) ([4]; Initial): <0.05; Impurity RRT 1.25 (HPLC) ([4]; Initial): <0.05; Impurity RRT 0.62 (HPLC) ([4]; Initial, listed as Polymorph A): 0.08; Impurity RRT 0.95 (HPLC) ([4]; Initial, listed as Polymorph A): 0.42; Sepiapterin RRT 1.00 (HPLC), amount of sepiapterin ([4]; Initial, listed as Polymorph A): 99.33%; Sepiapterin RRT 1.00 (HPLC), amount of sepiapterin ([4]; Initial, listed as polymorph A): 99.33%; Impurity RRT 0.62 (HPLC) ([4]; RT/10% RH, 1 w): 0.16; Impurity RRT 0.89 (HPLC) ([4]; RT/10% RH, 1 w): <0.05; Impurity RRT 1.06 (HPLC) ([4]; RT/10% RH, 1 w): <0.05; Impurity RRT 1.17 (HPLC) ([4]; RT/10% RH, 1 w): 0.16; Impurity RRT 1.21 (HPLC) ([4]; RT/10% RH, 1 w): <0.05; Impurity RRT 1.25 (HPLC) ([4]; RT/10% RH, 1 w): <0.05; Impurity RRT 0.95 (HPLC) [4, 9]: 0.77; Impurity RRT 1.08 (HPLC) [4, 9]: 0.11; Sepiapterin RRT 1.00 (HPLC), amount of sepiapterin [4, 9]: 98.80%; Impurity RRT 0.62 (HPLC) ([4]; RT/10% RH, 4 w): 0.37; Impurity RRT 0.89 (HPLC) ([4]; RT/10% RH, 4 w): <0.05; Impurity RRT 1.06 (HPLC) ([4]; RT/10% RH, 4 w): <0.05; Impurity RRT 1.08 (HPLC) ([4]; RT/10% RH, 4 w): <0.05; Impurity RRT 1.17 (HPLC) ([4]; RT/10% RH, 4 w): 0.16; Impurity RRT 1.21 (HPLC) ([4]; RT/10% RH, 4 w): <0.05; Impurity RRT 1.25 (HPLC) ([4]; RT/10% RH, 4 w): <0.05; Impurity RRT 0.95 (HPLC) [4, 10]: 1.29; Sepiapterin RRT 1.00 (HPLC), amount of sepiapterin [4, 10]: 98.18%; Purity of initial samples by HPLC ([4]; initial, before storage, listed as Form λ): 99.3 area %; % of Initial ([4]; storage 1 week, 35° C.): 98.6%; Purity (area %) ([4]; storage 1 week, 35° C.): 98.0 area %; % of Initial ([4]; storage 1 week, 50° C.): 95.8%; Purity (area %) ([4]; storage 1 week, 50° C.): 95.2 area %; % of Initial ([4]; storage 1 week, RT): 99.5%; Purity (area %) ([4]; storage 1 week, RT): 98.8 area %; % of Initial ([4]; storage 4 weeks, 35° C.): 96.7%; Purity (area %) ([4]; storage 4 weeks, 35° C.): 96.1 area %; % of Initial ([4]; storage 4 weeks, 50° C.): 89.1%; Purity (area %) ([4]; storage 4 weeks, 50° C.): 88.5 area %; % of Initial ([4]; storage 4 weeks, RT): 98.8%; Purity (area %) ([4]; storage 4 weeks, RT): 98.2 area %; Stability on storage as determined by HPLC, comparison of forms in words ([4]; storage up to 4 weeks at RT, 35° C., 50° C.): significantly less stability
